Laboratory results from US10131670B2, “Bicyclic heteroaryl derivatives as CFTR potentiators” (CYSTIC FIBROSIS FOUNDATION THERAPEUTICS, INC., priority 2016, dated 2018).
Structures can show the parent of a compound that is named as a salt.

Assays:
F508del V470 CFTR = F508del V470 CFTR (Homo sapiens, UniProt P13569, DEL508-508); assay: FRT Ion Flux Assay of F508del CFTR Potentiation; type: cell-based; conditions: FRT cells expressing F508del V470 CFTR and halide-sensitive YFP, forskolin 20 uM, 30 min
Experimental: FRT Ion Flux Assay of F508del CFTR Potentiation
Fischer rat thyroid (FRT) cell lines stably expressing recombinant F508del V470 CFTR and halide-sensitive yellow fluorescent protein (Pedemonte et al., J. Clin. Invest. 115(9) 2564-71 (2005)) were seeded at 25,000 cells/well in 50 uL/well of culture medium into black-walled, clear bottom tissue-culture-treated 384-well plates (Corning, cat. no. 3712). After one day, the cells were pre-incubated at 27° C./5% CO2 for 16-24 hours. The cells were then washed with dPBS and treated with forskolin (20 uM) and test compound for 30 min by addition of 20 uL of compound dilution buffer (dPBS containing forskolin and test compound). Plates were loaded into FLIPR384 fluorescence imaging plate reader (Molecular Devices). After an initial fluorescence reading, iodide buffer (25 uL) (composition (in mM): 137 NaI, 1.5 K2PO4, 8.1 NaH2PO4, 2.7 KCl, 0.5 MgCl2, 1 CaCl2) was added and a second fluorescence reading was made after approximately 21 seconds. Data treatment involved division of the second fluorescence reading by the initial fluorescence reading, then scaling of the resulting normalized endpoint fluorescence with respect to the responses for DMSO (0%) and a positive control potentiator (100%).

CFTR = CFTR (Homo sapiens, UniProt P13569); assay: Ussing Chamber Electrophysiology Assay of CFTR Potentiation in CF Bronchial Epithelial Cells; type: cell-based; conditions: primary CF hBE cells, short-circuit current, scaled to DMSO (0%) and positive control potentiator (100%)
Description: Ussing Chamber Electrophysiology Assay of CFTR Potentiation in CF Bronchial Epithelial Cells
Primary cystic fibrosis human bronchial epithelial (CF hBE) cells were expanded and cultured according to published methods (Neuberger et al., Ch. 4 of Cystic Fibrosis, Methods in Molecular Biology vol. 741, pp. 39-54 (2011)). Well-differentiated cells (>30 days at air/liquid interface) on Snapwell filters (Corning Costar, cat. no. 3801) were mounted in Ussing chambers (Physiologic Instruments, Inc., San Diego, Calif.). F508del/F508del cultures were assayed at 27° C. and G551D/F508del cells were assayed at 35° C. HEPES buffered physiological saline (composition (in mM): 137 NaCl, 4 KCl, 1 MgCl2, 1.8 CaCl2, 10 HEPES Na) was used in both apical and basolateral chambers. Chambers were bubbled with air to promote mixing and the voltage was clamped to zero. Amiloride (30 uM), forskolin (10 uM), test compound (4 increasing concentrations), and CFTRinh-172 (20 uM) were added sequentially with 20-25 minutes between additions. Short-circuit currents were acquired and analyzed using LabScribe2. Test compound responses were scaled relative to responses for DMSO (0%) and the maximal response of a positive control potentiator (100%).

Chain of F508del V470 CFTR (P13569 with tags, fused parts or gaps DEL508-508): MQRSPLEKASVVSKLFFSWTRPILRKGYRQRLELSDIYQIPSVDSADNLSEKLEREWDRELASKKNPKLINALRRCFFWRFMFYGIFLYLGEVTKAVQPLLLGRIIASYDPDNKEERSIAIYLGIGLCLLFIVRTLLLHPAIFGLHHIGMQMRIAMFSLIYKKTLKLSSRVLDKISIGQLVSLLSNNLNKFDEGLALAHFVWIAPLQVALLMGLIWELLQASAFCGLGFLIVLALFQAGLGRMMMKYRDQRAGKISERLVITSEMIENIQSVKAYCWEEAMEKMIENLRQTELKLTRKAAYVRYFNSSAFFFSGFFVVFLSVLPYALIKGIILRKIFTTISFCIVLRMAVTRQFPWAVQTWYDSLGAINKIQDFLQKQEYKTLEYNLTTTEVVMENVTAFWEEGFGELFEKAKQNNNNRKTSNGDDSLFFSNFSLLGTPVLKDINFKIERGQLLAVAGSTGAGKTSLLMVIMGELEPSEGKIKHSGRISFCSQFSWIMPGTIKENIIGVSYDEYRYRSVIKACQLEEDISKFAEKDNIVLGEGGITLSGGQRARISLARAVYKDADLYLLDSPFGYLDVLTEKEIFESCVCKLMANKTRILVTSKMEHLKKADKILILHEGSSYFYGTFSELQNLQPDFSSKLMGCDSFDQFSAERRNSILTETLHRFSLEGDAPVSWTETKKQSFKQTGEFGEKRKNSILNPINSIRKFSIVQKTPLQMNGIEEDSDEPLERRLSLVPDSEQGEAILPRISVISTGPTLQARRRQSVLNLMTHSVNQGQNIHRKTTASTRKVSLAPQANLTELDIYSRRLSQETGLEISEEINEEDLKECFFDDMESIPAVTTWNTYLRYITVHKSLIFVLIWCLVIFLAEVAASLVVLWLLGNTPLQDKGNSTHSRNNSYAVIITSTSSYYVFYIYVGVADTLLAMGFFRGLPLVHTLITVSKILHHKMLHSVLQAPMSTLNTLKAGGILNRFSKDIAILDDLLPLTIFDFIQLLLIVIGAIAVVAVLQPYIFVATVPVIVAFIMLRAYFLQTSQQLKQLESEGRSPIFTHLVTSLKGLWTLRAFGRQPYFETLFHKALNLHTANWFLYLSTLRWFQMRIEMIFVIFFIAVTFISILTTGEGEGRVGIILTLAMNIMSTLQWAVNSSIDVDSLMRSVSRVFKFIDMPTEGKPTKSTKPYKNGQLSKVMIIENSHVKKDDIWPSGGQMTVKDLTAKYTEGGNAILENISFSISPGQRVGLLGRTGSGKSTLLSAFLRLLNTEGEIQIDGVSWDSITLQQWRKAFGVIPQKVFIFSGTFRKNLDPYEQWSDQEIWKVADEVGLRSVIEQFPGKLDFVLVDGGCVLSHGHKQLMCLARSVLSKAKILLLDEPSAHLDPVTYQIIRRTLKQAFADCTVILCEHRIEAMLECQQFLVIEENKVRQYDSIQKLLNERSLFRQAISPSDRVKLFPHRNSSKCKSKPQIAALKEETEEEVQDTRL

Row | EC50 (F508del V470 CFTR) | EC50 (CFTR) | Compound
1 | 35.8 nM | 20.5 nM | CCC(c1cn(-c2ccccc2F)nn1)c1c(C#N)c(-c2cnc(C(F)(F)F)nc2)c2c(N)ncnn12 (single isomer, unassigned) [Example 4, 4-amino-7-{1-[1-(2-fluorophenyl)-1H-1,2,3-triazol-4-yl]propyl}-5-[2-(trifluoromethyl)pyrimidin-5-yl]pyrrolo[2,1-f][1,2,4]triazine-6-carbonitrile]
2 | 7.4 nM | 6.48 nM | CC(c1cn(-c2ccccc2F)nn1)c1cc(-c2cnc(C(F)(F)F)nc2)c2c(N)ncnn12 (single isomer, unassigned) [Example 54, 7-{1-[1-(2-fluorophenyl)-1H-1,2,3-triazol-4-yl]ethyl}-5-[2-(trifluoromethyl)pyrimidin-5-yl]pyrrolo[2,1-f][1,2,4]triazin-4-amine]
3 | 28.7 nM | 20.9 nM | CC(c1cn(-c2ccc(F)cc2F)nn1)c1c(C#N)c(-c2cnc(C(F)(F)F)nc2)c2c(N)ncnn12 (centres unmarked) [Example 24, 4-amino-7-{1-[1-(2,4-difluorophenyl)-1H-1,2,3-triazol-4-yl]ethyl}-5-[2-(trifluoromethyl)pyrimidin-5-yl]pyrrolo[2,1-f][1,2,4]triazine-6-carbonitrile]
4 | 54.4 nM | 116 nM | Nc1ncnn2c(Cc3cn(-c4ccccc4F)nn3)nc(-c3ccc(Cl)cc3)c12 [Example 93, 5-(4-Chlorophenyl)-7-{[1-(2-fluorophenyl)-1H-1,2,3-triazol-4-yl]methyl}imidazo[5,1-f][1,2,4]triazin-4-amine trifluoroacetate]
5 | 78.8 nM | 31 nM | CCC(c1cnn(-c2ccccc2F)c1)n1nc(-c2cnc(C(F)(F)F)nc2)c2c(N)ncnc21 (single isomer, unassigned) [Example 88, 1-{1-[1-(2-fluorophenyl)-1H-pyrazol-4-yl]propyl}-3-[2-(trifluoromethyl)pyrimidin-5-yl]-1H-pyrazolo[3,4-d]pyrimidin-4-amine]
6 | 26 nM | 19.8 nM | CC(c1cn(-c2cc(F)ccc2F)nn1)c1cc(-c2cnc(C(F)(F)F)nc2)c2c(N)ncnn12 (single isomer, unassigned) [Example 98, 7-{1-[1-(2,5-difluorophenyl)-1H-1,2,3-triazol-4-yl]ethyl}-5-[2-(trifluoromethyl)pyrimidin-5-yl]pyrrolo[2,1-f][1,2,4]triazin-4-amine]
7 | 1.88 nM | 2 nM | CCC(c1cn(-c2ccccc2F)nn1)c1cc(-c2cnc(C(F)(F)F)nc2)c2c(N)ncnn12 (single isomer, unassigned) [Example 57, 7-{1-[1-(2-fluorophenyl)-1H-1,2,3-triazol-4-yl]propyl}-5-[2-(trifluoromethyl)pyrimidin-5-yl]pyrrolo[2,1-f][1,2,4]triazin-4-amine]
8 | 29.6 nM | 19.3 nM | CCC(c1cn(-c2ccc(F)c(F)c2)nn1)c1cc(-c2cnc(C(F)(F)F)nc2)c2c(N)ncnn12 (single isomer, unassigned) [Example 63, 7-{1-[1-(3,4-difluorophenyl)-1H-1,2,3-triazol-4-yl]propyl}-5-[2-(trifluoromethyl)pyrimidin-5-yl]pyrrolo[2,1-f][1,2,4]triazin-4-amine]
9 | 6.59 nM | 2 nM | CCC(c1cnn(-c2ccccc2F)c1)c1c(C#N)c(-c2cnc(C(F)(F)F)nc2)c2c(N)ncnn12 (single isomer, unassigned) [Example 14, 4-amino-7-{1-[1-(2-fluorophenyl)-1H-pyrazol-4-yl]propyl}-5-[2-(trifluoromethyl)pyrimidin-5-yl]pyrrolo[2,1-f][1,2,4]triazine-6-carbonitrile]
10 | 249 nM | 115 nM | CCC(c1cn(-c2ccc(F)cc2F)nn1)c1cc(-c2cnc(C(F)(F)F)nc2)c2c(N)ncnn12 (single isomer, unassigned) [Example 59, 7-{1-[1-(2,4-difluorophenyl)-1H-1,2,3-triazol-4-yl]propyl}-5-[2-(trifluoromethyl)pyrimidin-5-yl]pyrrolo[2,1-f][1,2,4]triazin-4-amine]
11 | 2.13 nM | 3.02 nM | CCC(c1cn(-c2ccccc2F)nn1)c1c(C#N)c(-c2cnc(C(F)(F)F)nc2)c2c(N)ncnn12 (single isomer, unassigned) [Example 5, 4-amino-7-{1-[1-(2-fluorophenyl)-1H-1,2,3-triazol-4-yl]propyl}-5-[2-(trifluoromethyl)pyrimidin-5-yl]pyrrolo[2,1-f][1,2,4]triazine-6-carbonitrile]
12 | 18.4 nM | 16 nM | CCC(c1cn(-c2ccccc2F)nn1)c1cc(-c2cncnc2OC)c2c(N)ncnn12 (centres unmarked) [Example 83, 7-{1-[1-(2-fluorophenyl)-1H-1,2,3-triazol-4-yl]propyl}-5-(4-methoxypyrimidin-5-yl)pyrrolo[2,1-f][1,2,4]triazin-4-amine]
13 | 13.3 nM | 3 nM | CCC(c1cnn(-c2ccc(F)cc2F)c1)c1c(C#N)c(-c2cnc(C(F)(F)F)nc2)c2c(N)ncnn12 (single isomer, unassigned) [Example 17, 4-amino-7-{1-[1-(2,4-difluorophenyl)-1H-pyrazol-4-yl]propyl}-5-[2-(trifluoromethyl)pyrimidin-5-yl]pyrrolo[2,1-f][1,2,4]triazine-6-carbonitrile]
14 | 23.3 nM | 27.1 nM | N#Cc1c(-c2cnc(C(F)(F)F)nc2)c2c(N)ncnn2c1Cc1cn(-c2ccccc2F)nn1 [Example 22, 4-amino-7-{[1-(2-fluorophenyl)-1H-1,2,3-triazol-4-yl]methyl}-5-[2-(trifluoromethyl)pyrimidin-5-yl]pyrrolo[2,1-f][1,2,4]triazine-6-carbonitrile]
15 | 76.4 nM | 171 nM | CC(c1cn(-c2ccccc2F)nn1)c1cc(-c2cnc(C(F)(F)F)nc2)c2c(N)ncnn12 (single isomer, unassigned) [Example 53, 7-{1-[1-(2-fluorophenyl)-1H-1,2,3-triazol-4-yl]ethyl}-5-[2-(trifluoromethyl)pyrimidin-5-yl]pyrrolo[2,1-f][1,2,4]triazin-4-amine]
16 |  | 0.4 nM | CC(c1cnn(-c2ccccc2F)c1)c1c(C#N)c(-c2cnc(C(F)F)nc2)c2c(N)ncnn12 (single isomer, unassigned) [Example 96, 4-amino-5-[2-(difluoromethyl)pyrimidin-5-yl]-7-{1-[1-(2-fluorophenyl)-1H-pyrazol-4-yl]ethyl}pyrrolo[2,1-f][1,2,4]triazine-6-carbonitrile]
17 | 17.6 nM | 9.95 nM | CCC(c1cn(-c2cc(F)ccc2F)nn1)c1cc(-c2cnc(C(F)(F)F)nc2)c2c(N)ncnn12 (single isomer, unassigned) [Example 62, 7-{1-[1-(2,5-difluorophenyl)-1H-1,2,3-triazol-4-yl]propyl}-5-[2-(trifluoromethyl)pyrimidin-5-yl]pyrrolo[2,1-f][1,2,4]triazin-4-amine]
18 | 266 nM | 225 nM | CC(c1cn(-c2ccc(F)cc2F)nn1)c1cc(-c2cnc(C(F)(F)F)nc2)c2c(N)ncnn12 (single isomer, unassigned) [Example 55, 7-{1-[1-(2,4-difluorophenyl)-1H-1,2,3-triazol-4-yl]ethyl}-5-[2-(trifluoromethyl)pyrimidin-5-yl]pyrrolo[2,1-f][1,2,4]triazin-4-amine]
19 | 2310 nM |  | CC(O)(c1cn(-c2ccccc2F)nn1)c1cc(-c2cnc(C(F)(F)F)nc2)c2c(N)ncnn12 (single isomer, unassigned) [Example 68, 1-{4-amino-5-[2-(trifluoromethyl)pyrimidin-5-yl]pyrrolo[2,1-f][1,2,4]triazin-7-yl}-1-[1-(2-fluorophenyl)-1H-1,2,3-triazol-4-yl]ethanol]
20 |  | 3.87 nM | CC(c1cnn(-c2ccccc2F)c1)c1c(C#N)c(-c2cnc(C(F)F)nc2)c2c(N)ncnn12 (single isomer, unassigned) [Example 97, 4-amino-5-[2-(difluoromethyl)pyrimidin-5-yl]-7-{1-[1-(2-fluorophenyl)-1H-pyrazol-4-yl]ethyl}pyrrolo[2,1-f][1,2,4]triazine-6-carbonitrile]
21 |  | 7.86 nM | CCC(c1cn(-c2ccccc2F)nn1)c1c(C#N)c(-c2cnc(C(F)(F)F)nc2)c2c(N)ncnn12 (centres unmarked) [Example 25, 4-amino-7-{1-[1-(2-fluorophenyl)-1H-1,2,3-triazol-4-yl]propyl}-5-[2-(trifluoromethyl)pyrimidin-5-yl]pyrrolo[2,1-f][1,2,4]triazine-6-carbonitrile]
